Each block holds one molecule with its values, some of them ahead of it. Activity calls are given as the source filed them.
How the values were obtained:
[1] = target: Cytochrome P450 3A4 (Homo sapiens, UniProt P08684); conditions: Potency;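 also: confirmatory qHTS run detecting inhibitors and substrates of CYP3A4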
[2] = target: Eukaryotic translation initiation factor 4E (Mus musculus, UniProt P63073); experiment: blockers of eIF4G binding by eIF4E – biochemical, TR-FRET, dose response (AID 855); assay type: functional;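 also: potency for disrupting eIF4E binding to eIF4GI seen as loss of FRET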
[3] = target: T1, Small ubiquitin-related modifier 1 (Homo sapiens, UniProt P63165); experiment: SUMO1 protein interaction blockers, potency – biochemical, fluorescence polarization, uHTS hits, dose response (AID 624382); assay type: functional; conditions: read-out: IC50_Mean
[4] = target: T1, Small ubiquitin-related modifier 1; experiment: SUMO1 protein-protein binding blockers, potency – biochemical, FRET, dose response (AID 624383); assay type: functional; conditions: read-out: IC50_Mean
[5] = target: NAD-dependent protein deacylase sirtuin-5, mitochondrial (Homo sapiens, UniProt Q9NXA8); experiment: sirtuin-5 deacylation blockers, concentration series – biochemical, fluorescence imaging, cherry-pick, set 5, dose response (AID 720591);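 also: desuccinylation of succinyl peptide AMC substrate read as fluorescence after trypsin release; potency of inhibitors that lower fluorescence and may act on trypsin instead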
[6] = tested on: BJ; experiment: BJ-TERT fibroblast viability loss – cell-based, RAS-independent, luminescence, dose response (AID 1933); assay type: functional; conditions: Homo sapiens
[7] = tested on: BJ; experiment: cells; assay type: functional, cell-based; conditions: Homo sapiens
[8] = target: Luciferin 4-monooxygenase (Photinus pyralis, UniProt P08659); experiment: inhibition of purified Photinus pyralis luciferase – biochemical, luminescence, dose response (AID 1891)
[9] = Luminescence Cell-Based Dose Confirmation HTS to Identify Inhibitors of Platelet Dense Granule Release. [Related pubchem assays: 1663 (Primary HTS), 1678 (Summary of Project)]; assay type: functional
[10] = tested on: BJ; experiment: BJ-TERT-LT-ST fibroblast viability loss – cell-based, RAS-independent, luminescence, dose response (AID 1935); assay type: functional; conditions: Homo sapiens;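 also: BJ fibroblasts immortalized with TERT plus LT and ST oncogenes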
[11] = DRD fibroblast viability loss – cell-based, non-viral oncogenic, luminescence, dose response (AID 1934); assay type: functional; conditions: Homo sapiens
[12] = target: Peroxisome proliferator-activated receptor gamma/Nuclear receptor coactivator 2 (Homo sapiens, UniProt P37231); assay type: functional;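 also: agonist potency for raising coactivator recruitment to the receptor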
[13] = target: Peroxisome proliferator-activated receptor gamma/Nuclear receptor coactivator 1 (Homo sapiens, UniProt P37231); assay type: functional;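 also: agonist potency as compounds enhance coactivator SRC-1 recruitment to PPARgamma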
[14] = target: Peroxisome proliferator-activated receptor gamma/Nuclear receptor coactivator 3 (Homo sapiens, UniProt P37231); assay type: functional;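 also: agonist potency for raising coactivator recruitment to the receptor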
[15] = Trypanosoma cruzi growth suppression in host cells – NIH3T3 host cells, beta-gal luminescence, confirmation (AID 2044); assay type: functional, cell-based;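 also: intracellular parasites grown in NIH/3T3 mouse fibroblasts as host cells; luminescent beta-galactosidase reporter signal from transgenic T. cruzi replicating inside host cells; inhibitors lower the luminescence signal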
[16] = NIH3T3 cell viability loss – ATP luminescence, mouse fibroblasts, counter-screen, dose response (AID 2010); assay type: functional, cell-based;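 also: cells exposed to compound for about 90 hours before reading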
[17] = target: Induced myeloid leukemia cell differentiation protein Mcl-1 (Homo sapiens, UniProt Q07820); assay type: functional
[18] = target: T2, Bcl-2-like protein 10 (Homo sapiens, UniProt Q9HD36); experiment: Bcl-B/TR3 peptide binding disruption – biochemical, fluorescence polarization, FITC-TR3 peptide, selectivity assay for Bfl-1 inhibitor project, primary screen (AID 748);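 also: fluorescence polarization from a fluorescein-labelled TR3 peptide binding purified Bcl-B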
T2 sequence (Q9HD36 whole entry): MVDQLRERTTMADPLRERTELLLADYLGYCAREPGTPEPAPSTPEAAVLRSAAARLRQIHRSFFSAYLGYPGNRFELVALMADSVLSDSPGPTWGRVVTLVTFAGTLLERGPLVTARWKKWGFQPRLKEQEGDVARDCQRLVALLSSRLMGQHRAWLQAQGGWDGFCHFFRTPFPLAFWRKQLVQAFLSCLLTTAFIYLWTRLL

[19] = target: Cytochrome P450 2C9 (Homo sapiens, UniProt P11712)
[20] = target: T3, fMet-Leu-Phe receptor (Homo sapiens, UniProt P21462); experiment: formyl peptide receptor binders – dose response (AID 519); assay type: functional
T3 sequence (P21462 whole entry): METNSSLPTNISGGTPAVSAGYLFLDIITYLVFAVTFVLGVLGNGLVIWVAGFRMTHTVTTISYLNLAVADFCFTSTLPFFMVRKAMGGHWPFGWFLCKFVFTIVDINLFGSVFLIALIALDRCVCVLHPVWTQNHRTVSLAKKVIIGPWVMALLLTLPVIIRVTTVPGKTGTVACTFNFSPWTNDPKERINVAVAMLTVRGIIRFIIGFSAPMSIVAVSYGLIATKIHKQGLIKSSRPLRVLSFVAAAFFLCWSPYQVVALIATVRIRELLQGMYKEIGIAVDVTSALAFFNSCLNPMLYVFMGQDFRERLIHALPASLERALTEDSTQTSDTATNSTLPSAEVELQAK

[21] = target: T4, Rac GTPase-activating protein 1 (Homo sapiens, UniProt Q9H0H5); experiment: blockers of MgcRacGAP-driven Rac1 GTP hydrolysis – biochemical, ADP Hunter fluorescence, primary and confirmatory, confirmation (AID 624330); assay type: functional
T4 sequence (Q9H0H5 whole entry): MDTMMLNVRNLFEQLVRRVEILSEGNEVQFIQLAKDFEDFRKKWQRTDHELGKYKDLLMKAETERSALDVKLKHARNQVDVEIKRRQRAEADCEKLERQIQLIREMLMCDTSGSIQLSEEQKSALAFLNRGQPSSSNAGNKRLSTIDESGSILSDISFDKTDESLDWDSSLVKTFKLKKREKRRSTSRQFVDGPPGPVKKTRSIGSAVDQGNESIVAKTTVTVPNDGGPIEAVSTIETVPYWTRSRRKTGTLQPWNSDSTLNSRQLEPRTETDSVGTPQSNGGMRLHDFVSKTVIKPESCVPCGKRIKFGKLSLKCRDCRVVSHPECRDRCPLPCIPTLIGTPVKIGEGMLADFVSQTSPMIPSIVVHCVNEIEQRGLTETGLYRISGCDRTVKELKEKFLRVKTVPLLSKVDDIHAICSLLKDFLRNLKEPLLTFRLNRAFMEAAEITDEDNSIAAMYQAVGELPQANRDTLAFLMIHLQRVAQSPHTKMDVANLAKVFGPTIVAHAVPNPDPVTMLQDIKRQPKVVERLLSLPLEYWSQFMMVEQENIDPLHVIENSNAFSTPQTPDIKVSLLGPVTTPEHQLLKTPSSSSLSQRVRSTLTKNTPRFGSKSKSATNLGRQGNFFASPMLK

[22] = target: T5, DNA repair protein RAD52 homolog (Homo sapiens, UniProt P43351); assay type: functional, biochemical
T5 sequence (P43351 whole entry): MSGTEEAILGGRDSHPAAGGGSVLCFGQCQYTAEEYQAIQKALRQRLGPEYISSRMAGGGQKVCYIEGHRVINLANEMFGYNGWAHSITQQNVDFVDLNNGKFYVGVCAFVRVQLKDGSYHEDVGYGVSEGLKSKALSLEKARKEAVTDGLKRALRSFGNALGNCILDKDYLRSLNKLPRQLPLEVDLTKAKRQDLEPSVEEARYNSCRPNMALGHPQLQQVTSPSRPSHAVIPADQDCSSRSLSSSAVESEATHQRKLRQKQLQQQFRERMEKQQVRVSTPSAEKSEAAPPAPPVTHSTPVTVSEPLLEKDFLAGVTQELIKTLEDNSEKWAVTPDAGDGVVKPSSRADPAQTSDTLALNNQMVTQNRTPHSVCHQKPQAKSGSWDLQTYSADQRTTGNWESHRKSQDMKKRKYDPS

[23] = target: T6, Carboxy-terminal domain RNA polymerase II polypeptide A small phosphatase 1 (Homo sapiens, UniProt Q9GZU7); experiment: CTDSP1 inhibitors, concentration-response, biochemical, absorbance readout, ultra-high-throughput screen actives (AID 540297); assay type: functional
T6 sequence (Q9GZU7 whole entry): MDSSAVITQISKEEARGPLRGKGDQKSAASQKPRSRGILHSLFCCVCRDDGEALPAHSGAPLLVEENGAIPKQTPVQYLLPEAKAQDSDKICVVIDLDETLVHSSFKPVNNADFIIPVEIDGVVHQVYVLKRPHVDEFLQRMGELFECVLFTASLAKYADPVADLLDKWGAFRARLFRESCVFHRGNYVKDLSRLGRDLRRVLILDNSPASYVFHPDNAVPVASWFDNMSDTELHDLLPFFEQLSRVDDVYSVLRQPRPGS

[24] = growth inhibition of yeast DHODH-expressing 3D7 parasites – SYBR Green, dry powder samples, dose response (AID 1159570); assay type: functional, cell-based;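 also: parasite growth measured after 72 hours of compound exposure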
[25] = P. falciparum Dd2 growth inhibitors, dose response, SYBR Green, cherry-picked samples (AID 1159567); assay type: functional, cell-based
[26] = Dd2 malaria parasite growth inhibition potency – SYBR Green, dry powder samples, dose response (AID 1159566); assay type: functional, cell-based;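 also: potency for growth inhibition with lower SYBR green DNA signal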
[27] = growth inhibition of PfATP4-mutant resistant parasites – NITD609-resistant line, SYBR Green, dry powder, dose response (AID 1159571); assay type: functional, cell-based;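 also: parasites synchronized at ring stage by sorbitol before testing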
[28] = toxicity to human hepatoma HepG2 cells – cell-based, cherry-picked samples, cytotoxicity control, dose response (AID 1159577); assay type: functional

NAD-dependent protein deacylase sirtuin-5, mitochondrial, sequence (Q9NXA8 whole entry): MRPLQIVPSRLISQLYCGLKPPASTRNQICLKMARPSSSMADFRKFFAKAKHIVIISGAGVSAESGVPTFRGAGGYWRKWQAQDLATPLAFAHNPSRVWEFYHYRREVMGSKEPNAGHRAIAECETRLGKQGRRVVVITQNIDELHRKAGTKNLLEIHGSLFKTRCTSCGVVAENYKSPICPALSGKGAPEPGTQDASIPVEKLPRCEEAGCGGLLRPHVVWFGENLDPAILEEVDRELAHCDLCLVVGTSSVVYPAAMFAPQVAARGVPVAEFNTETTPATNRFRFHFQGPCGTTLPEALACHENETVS
Cytochrome P450 3A4, sequence (P08684 whole entry): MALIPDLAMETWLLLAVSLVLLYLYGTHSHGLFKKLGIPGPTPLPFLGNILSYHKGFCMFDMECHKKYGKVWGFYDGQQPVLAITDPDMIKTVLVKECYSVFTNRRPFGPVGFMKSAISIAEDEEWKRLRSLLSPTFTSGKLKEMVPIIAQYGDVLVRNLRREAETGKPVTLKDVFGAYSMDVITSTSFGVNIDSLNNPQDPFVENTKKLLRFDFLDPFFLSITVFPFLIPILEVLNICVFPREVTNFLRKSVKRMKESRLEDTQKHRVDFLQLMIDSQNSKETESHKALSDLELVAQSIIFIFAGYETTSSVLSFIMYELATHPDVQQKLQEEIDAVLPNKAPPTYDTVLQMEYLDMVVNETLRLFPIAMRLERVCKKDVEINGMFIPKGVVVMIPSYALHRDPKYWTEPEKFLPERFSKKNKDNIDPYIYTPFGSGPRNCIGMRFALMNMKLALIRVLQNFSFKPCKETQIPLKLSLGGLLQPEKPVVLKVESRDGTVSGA
Peroxisome proliferator-activated receptor gamma/Nuclear receptor coactivator 1, sequence (P37231 whole entry): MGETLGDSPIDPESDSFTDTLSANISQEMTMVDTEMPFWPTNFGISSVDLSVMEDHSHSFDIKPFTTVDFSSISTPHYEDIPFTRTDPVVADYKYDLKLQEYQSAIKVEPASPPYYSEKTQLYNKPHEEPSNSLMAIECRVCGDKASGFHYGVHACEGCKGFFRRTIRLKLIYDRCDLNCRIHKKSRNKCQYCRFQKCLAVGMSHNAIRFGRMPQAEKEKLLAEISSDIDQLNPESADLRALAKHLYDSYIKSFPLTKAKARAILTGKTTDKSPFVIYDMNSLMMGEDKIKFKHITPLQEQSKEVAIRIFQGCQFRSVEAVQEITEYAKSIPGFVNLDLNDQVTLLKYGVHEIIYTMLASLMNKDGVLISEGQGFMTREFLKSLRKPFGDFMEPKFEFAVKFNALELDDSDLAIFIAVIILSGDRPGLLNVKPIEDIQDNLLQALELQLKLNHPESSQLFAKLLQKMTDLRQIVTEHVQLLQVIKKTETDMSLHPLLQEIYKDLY
Peroxisome proliferator-activated receptor gamma/Nuclear receptor coactivator 1, sequence (Q15788 whole entry, further chain): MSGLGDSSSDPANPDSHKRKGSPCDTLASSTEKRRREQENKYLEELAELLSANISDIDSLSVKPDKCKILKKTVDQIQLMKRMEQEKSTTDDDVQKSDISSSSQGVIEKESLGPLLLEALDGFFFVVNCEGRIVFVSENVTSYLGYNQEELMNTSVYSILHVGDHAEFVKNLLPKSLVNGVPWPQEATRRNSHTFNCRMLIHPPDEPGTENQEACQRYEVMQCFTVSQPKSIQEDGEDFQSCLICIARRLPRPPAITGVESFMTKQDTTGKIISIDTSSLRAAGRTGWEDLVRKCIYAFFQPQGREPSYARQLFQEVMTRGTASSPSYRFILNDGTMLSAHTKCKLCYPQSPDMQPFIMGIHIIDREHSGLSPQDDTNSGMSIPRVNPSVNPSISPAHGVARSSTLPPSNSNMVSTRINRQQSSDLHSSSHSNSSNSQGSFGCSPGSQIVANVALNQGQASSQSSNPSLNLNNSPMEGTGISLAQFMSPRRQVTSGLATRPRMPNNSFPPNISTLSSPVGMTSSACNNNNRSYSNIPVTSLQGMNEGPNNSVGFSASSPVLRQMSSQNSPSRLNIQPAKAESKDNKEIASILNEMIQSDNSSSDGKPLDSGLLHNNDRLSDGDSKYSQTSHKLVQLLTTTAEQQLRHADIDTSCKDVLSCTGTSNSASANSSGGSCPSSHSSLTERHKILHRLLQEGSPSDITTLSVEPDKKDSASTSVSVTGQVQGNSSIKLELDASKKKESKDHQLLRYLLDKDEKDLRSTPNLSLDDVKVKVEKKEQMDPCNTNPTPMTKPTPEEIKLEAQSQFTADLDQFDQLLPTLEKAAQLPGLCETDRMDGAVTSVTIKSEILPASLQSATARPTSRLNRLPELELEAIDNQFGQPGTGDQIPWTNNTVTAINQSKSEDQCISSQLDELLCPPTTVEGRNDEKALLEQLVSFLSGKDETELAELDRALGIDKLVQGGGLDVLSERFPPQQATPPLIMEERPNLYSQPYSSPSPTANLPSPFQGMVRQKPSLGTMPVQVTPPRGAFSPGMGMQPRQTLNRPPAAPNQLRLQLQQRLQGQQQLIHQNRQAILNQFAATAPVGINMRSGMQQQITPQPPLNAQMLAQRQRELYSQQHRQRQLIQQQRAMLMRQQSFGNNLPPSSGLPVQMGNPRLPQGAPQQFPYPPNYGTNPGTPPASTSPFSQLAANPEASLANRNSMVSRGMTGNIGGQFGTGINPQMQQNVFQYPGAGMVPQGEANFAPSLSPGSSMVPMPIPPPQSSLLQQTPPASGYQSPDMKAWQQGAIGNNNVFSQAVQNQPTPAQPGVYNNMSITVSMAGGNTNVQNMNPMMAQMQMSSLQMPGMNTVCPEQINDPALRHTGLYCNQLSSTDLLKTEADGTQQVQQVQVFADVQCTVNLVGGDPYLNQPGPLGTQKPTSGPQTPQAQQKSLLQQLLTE
Peroxisome proliferator-activated receptor gamma/Nuclear receptor coactivator 2, sequence (P37231 whole entry): as the sequence (P37231 whole entry) above
Peroxisome proliferator-activated receptor gamma/Nuclear receptor coactivator 2, sequence (Q15596 whole entry, further chain): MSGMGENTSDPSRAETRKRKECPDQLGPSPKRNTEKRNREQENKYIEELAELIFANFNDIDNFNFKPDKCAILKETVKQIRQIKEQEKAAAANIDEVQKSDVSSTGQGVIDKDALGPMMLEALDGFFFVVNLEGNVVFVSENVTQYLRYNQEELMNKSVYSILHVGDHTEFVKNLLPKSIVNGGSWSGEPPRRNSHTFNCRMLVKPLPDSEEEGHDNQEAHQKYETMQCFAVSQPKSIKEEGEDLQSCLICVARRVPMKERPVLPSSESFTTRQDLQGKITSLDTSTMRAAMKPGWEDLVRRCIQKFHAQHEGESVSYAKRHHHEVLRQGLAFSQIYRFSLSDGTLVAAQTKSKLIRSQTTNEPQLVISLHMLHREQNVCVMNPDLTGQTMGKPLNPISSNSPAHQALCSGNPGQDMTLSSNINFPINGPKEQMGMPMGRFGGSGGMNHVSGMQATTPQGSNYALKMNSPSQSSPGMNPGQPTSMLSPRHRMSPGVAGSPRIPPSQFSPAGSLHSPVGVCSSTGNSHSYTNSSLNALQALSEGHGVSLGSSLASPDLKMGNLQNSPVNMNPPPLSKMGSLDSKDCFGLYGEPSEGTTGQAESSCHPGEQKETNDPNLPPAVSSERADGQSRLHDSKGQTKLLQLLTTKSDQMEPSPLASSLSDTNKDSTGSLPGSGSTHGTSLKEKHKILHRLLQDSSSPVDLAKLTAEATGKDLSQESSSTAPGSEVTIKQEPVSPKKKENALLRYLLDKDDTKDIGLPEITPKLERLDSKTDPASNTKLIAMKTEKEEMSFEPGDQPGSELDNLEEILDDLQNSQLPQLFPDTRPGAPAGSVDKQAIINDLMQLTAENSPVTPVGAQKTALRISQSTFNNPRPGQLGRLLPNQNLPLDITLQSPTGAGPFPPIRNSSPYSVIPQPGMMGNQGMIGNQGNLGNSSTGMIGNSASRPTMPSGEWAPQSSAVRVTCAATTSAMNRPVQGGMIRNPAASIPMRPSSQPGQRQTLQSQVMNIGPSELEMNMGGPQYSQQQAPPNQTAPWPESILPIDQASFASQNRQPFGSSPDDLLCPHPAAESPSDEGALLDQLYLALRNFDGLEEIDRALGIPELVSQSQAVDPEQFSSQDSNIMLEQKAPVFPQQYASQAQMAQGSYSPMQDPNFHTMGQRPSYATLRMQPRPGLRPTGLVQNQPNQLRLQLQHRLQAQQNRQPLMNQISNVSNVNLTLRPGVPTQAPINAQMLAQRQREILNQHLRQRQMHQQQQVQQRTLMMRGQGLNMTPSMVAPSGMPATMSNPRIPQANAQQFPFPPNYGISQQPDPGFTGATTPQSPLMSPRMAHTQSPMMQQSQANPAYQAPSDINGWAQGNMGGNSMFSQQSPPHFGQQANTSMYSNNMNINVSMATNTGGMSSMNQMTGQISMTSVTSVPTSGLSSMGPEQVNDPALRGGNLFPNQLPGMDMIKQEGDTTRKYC
T1 sequence (P63165 whole entry): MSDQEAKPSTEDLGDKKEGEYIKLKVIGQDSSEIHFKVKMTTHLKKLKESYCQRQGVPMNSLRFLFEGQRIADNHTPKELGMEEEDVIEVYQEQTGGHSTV
Eukaryotic translation initiation factor 4E, sequence (P63073 whole entry): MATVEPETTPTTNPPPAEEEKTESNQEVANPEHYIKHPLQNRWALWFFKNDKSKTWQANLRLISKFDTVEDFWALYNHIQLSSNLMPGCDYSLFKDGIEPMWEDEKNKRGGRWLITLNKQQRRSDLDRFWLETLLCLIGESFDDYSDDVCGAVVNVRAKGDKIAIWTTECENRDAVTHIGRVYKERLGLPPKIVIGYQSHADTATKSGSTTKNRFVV

Structure (SMILES): N#CCC(=O)NC(=O)NCC1CC1
- AC50 [1]: 0.0126 µM (inconclusive)

Structure (SMILES): COc1ccc(OC)c(-c2csc(NC(=O)Cn3[nH]c(=O)c4ccccc4c3=O)n2)c1
- IC50 [2]: 50 µM (inactive)
- IC50 [3]: > 66.6 µM (inactive)
- IC50 [4]: 100 µM (inactive)
- AC50 [5]: 28 µM (active)

Structure (SMILES): Cc1ncsc1C(=O)Nc1nc2c(s1)CCCC2
- EC50 [6]: 18 µM (active)
- EC50 [7]: 20 µM (active)
- EC50 [8]: 3.81 µM (active)
- EC50 [9]: 3.99 µM (active)
- EC50 [10]: > 150 µM (not active)
- EC50 [11]: 20.9 µM (inconclusive)

Structure (SMILES): c1nc[nH]n1
- AC50 [1]: 31.6 µM (inconclusive)

Structure (SMILES): CN(C)CCCN(C(=O)c1ccc(N2C(=O)CCC2=O)cc1)c1nc2c(F)cccc2s1
- EC50 [12]: > 79.4 µM (not active)
- EC50 [13]: > 79.4 µM (not active)
- EC50 [14]: > 79.4 µM (not active)
- EC50 [15]: 0.471 µM (active)
- EC50 [16]: > 30 µM (not active)

Structure (SMILES): COC(=O)C1=[N+]([O-])OC(C(=O)OC)C1c1c[nH]c2ccccc12 (stereo not given)
- Ki [20]: > 66.7 µM (inactive)

Structure (SMILES): COC(=O)[C@@H]1C[C@H]2CC[C@H](O)C[C@H]2N1CC1CC1
- AC50 [1]: 20 µM (inconclusive)

Structure (SMILES): CCN1CCN(c2ccc(N)c(C)c2)CC1
- IC50 [21]: 48.3 µM (active)
- AC50 [22]: 3.46 µM (active)

Structure (SMILES): COc1ccc(S(=O)(=O)N2CCOCC2)cc1NC(=O)CSc1n[nH]c(C(C)C)n1
- AC50 [5]: > 30 µM (inactive)

Structure (SMILES): COc1ccc(S(=O)(=O)N2CCOc3ccccc32)cc1
- EC50 [6]: 14 µM (active)
- EC50 [7]: 55.9 µM (inconclusive)
- EC50 [10]: 10.3 µM (inconclusive)
- EC50 [11]: 13.1 µM (inconclusive)

Structure (SMILES): CCN(CC)C(=O)CSc1nc2ncccc2[nH]1
- EC50 [12]: > 79.4 µM (not active)
- EC50 [13]: > 79.4 µM (not active)
- EC50 [14]: > 79.4 µM (not active)

Structure (SMILES): C[C@H](CO)N1C[C@H](C)[C@H](CN(C)S(=O)(=O)c2ccc([N+](=O)[O-])cc2)OCc2ccccc2-c2c(n(C)c3ccccc23)C1=O
- AC50 [24]: 0.476 µM (active)
- AC50 [25]: 1 µM (active)
- AC50 [26]: 0.305 µM (active)
- AC50 [27]: 0.308 µM (active)

Structure (SMILES): CCc1csc(N2[C@H](C#N)[C@H](c3ccccc3-c3ccc(F)cc3)[C@H]2CO)n1
- AC50 [24]: 1.13 µM (active)
- AC50 [25]: 2.65 µM (active)
- AC50 [26]: 0.989 µM (active)
- AC50 [27]: 5.46 µM (active)

Structure (SMILES): COc1ccc2c3c([nH]c2c1)[C@@H](CO)N(C(=O)CN(C)C)CC31CN(CC2CCCC2)C1
- AC50 [25]: 2.12 µM (active)
- AC50 [28]: 13.8 µM (active)

Structure (SMILES): Nc1ccc(-c2ccc(N)cc2)cc1 [BENZIDINE]
- IC50 [21]: 7.39 µM (active)
- AC50 [1]: 25.1 µM (inconclusive)

More lines, now with the values ahead:

- EC50 [12]: > 79.4 µM (not active)
- EC50 [13]: > 79.4 µM (not active)
- EC50 [14]: > 79.4 µM (not active)
Structure (SMILES): CCc1ccc(N(C(=O)c2csnn2)C(C(=O)NC(C)(C)C)c2cccnc2)cc1 (stereo not given)

- EC50 [12]: > 79.4 µM (not active)
- EC50 [13]: > 79.4 µM (not active)
- EC50 [14]: > 79.4 µM (not active)
Structure (SMILES): CCn1cc(S(=O)(=O)Nc2ccccc2C(F)(F)F)cn1

- IC50 [17]: 4.84 µM (active)
Structure (SMILES): O=C(COC(=O)c1ccc2c(c1)C(=O)N(Cc1ccncc1)C2=O)Nc1ccccc1[N+](=O)[O-]

- IC50 [18]: 73.3 µM (inactive)
- AC50 [19]: 4.47 µM (inconclusive)
Structure (SMILES): Cc1ccc(-n2nc3ccc(NC(=O)c4ccc5c(c4)OCO5)cc3n2)cc1

- Ki [20]: 18.4 µM (inactive)
Structure (SMILES): CCN(C(=O)Cc1c(C(=O)O)[nH]c2ccccc12)c1cc(OC)ccc1OC

- Ki [20]: > 66.7 µM (inactive)
Structure (SMILES): O=C(Nc1ccc(Nc2ccccc2)cc1)c1ccc(Br)o1

- AC50 [5]: > 30 µM (inactive)
Structure (SMILES): CSc1ccccc1NC(=O)COC(=O)CCC(=O)c1ccc(F)cc1

- IC50 [17]: 3.75 µM (active)
- IC50 [23]: 4.27 µM (active)
Structure (SMILES): O=C(N/N=C/c1ccco1)c1cccc(N2Cc3ccccc3C2)c1
